“And” between values parts separate entries of the source, which are not always exact repeats. Equal values may be shown once.
Key:
[1] = mouse, in vivo, po
Description: (§1) A solution with a certain concentration was prepared from the crystal form B of the phosphate, and the administration volume was 10 mL/kg.
(§2) Experimental animals: C57BL16 mice aged for 5 weeks and weighed for about 13-16 g.
(§3) Grouping and administration scheme: the mice were fed adaptively and divided into a normal control group and a model group which were fed with high-fat feed (Research diets, D 12492). When the fasting blood glucose of the mice was greater than or equal to 7 mM, it was considered that the mice had become DIO mice. The DIO mice could be selected for the hypoglycemic effect test. The DIO mice were stratified and randomly grouped according to the blood glucose and the weight. […] The weight and the fasting blood glucose were measured weekly; the food amount, the remaining food amount and the food intake were recorded; the mice were fasted overnight at the end of administration, the blood was sampled, and the free fatty acid (NEFA), total cholesterol (TCHO), triglyceride (TG), insulin and DPPIV activity were measured by using serum.

[2] = Long-term administration on DIO mice: weight, food intake, tolerance; details: for weight after the drug was administrated for 28 days: individual animals
Description: as §1, §2, §3

[3] = target: serum DPPIV (Mus musculus, UniProt P28843); test: Long-term administration on DIO mice: inhibition of serum DPPIV; assay type: in vivo, C57BL16 mice; set-up: from tissue; host or cells: serum of diet-induced obese C57BL mice after 28 days of oral dosing; details: after long-term administration
From the text: Table 18 was a total data table of the metabolic parameters.

serum DPPIV, sequence (P28843 38-760 limits assumed): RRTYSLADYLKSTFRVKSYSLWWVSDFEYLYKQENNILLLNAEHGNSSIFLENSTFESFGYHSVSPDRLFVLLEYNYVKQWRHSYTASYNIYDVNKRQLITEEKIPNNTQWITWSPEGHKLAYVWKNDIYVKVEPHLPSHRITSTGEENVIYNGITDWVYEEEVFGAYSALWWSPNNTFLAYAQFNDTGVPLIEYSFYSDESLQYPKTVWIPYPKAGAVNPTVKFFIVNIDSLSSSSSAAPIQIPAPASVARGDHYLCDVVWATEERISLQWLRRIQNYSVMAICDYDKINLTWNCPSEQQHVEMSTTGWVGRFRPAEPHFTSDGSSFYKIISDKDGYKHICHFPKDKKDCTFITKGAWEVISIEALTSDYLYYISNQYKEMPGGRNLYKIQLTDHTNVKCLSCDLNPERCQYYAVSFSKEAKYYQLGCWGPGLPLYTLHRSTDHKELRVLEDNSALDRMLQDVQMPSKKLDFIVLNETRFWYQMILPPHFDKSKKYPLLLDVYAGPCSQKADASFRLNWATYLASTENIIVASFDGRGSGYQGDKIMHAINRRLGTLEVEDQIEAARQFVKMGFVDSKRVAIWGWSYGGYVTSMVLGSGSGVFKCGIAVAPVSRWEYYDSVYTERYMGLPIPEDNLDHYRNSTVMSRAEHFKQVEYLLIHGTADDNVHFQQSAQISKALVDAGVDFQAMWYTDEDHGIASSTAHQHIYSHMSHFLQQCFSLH

Q: Which “tolerance after long-term administration” value [1] does the source give for `C[C@@H]1c2cnc(C(F)(F)F)n2CCN1C(=O)C[C@H](N)Cc1cc(F)c(F)cc1F` [DPPIV-P1, (8R)-7-[(3R)-3-amino-1-oxo-4-(2,4,5-trifluorophenyl)butyl]-5,6,7,8-tetrahydro-8-methyl-3-(trifluoromethyl)imidazo[1,5-a]pyrazine] here?
A: good in tolerance and not easy to induce hypoglycemia

Q: And the Food intake ([2]; 0.3 mg/kg)?
A: 2.2 ± 0.3 g/day

Q: And the weight ([2]; 0.3 mg/kg daily, D1)?
A: 38.9 ± 3.8 g

Q: And the weight ([2]; 0.3 mg/kg daily, D7)?
A: 37.4 ± 3.4 g

Q: And the weight ([2]; 0.3 mg/kg daily, D14)?
A: 38.2 ± 4.2 g

Q: What about the weight ([2]; 0.3 mg/kg daily, D21) of the same molecule?
A: 40.2 ± 4.2 g

Q: What about the weight ([2]; 0.3 mg/kg daily, D28) of the same molecule?
A: 39.5 ± 5.0 g

Q: And the weight ([2]; 0.3 mg/kg, total data table of metabolic parameters (end of experiment))?
A: 39.5 ± 5.0 g

Q: And the Food intake ([2]; 3 mg/kg)?
A: 2.2 ± 0.3 g/day

Q: And the weight ([2]; 3 mg/kg daily, D1)?
A: 41.5 ± 3.5 g

Q: What about the weight ([2]; 3 mg/kg daily, D7) of the same molecule?
A: 40.9 ± 4.2 g

Q: And the weight ([2]; 3 mg/kg daily, D14)?
A: 43.1 ± 4.9 g

Q: What about the weight ([2]; 3 mg/kg daily, D21) of the same molecule?
A: 44.2 ± 5.1 g

Q: What about the weight ([2]; 3 mg/kg daily, D28) of the same molecule?
A: 45.0 ± 5.4 g

Q: And the weight ([2]; 3 mg/kg, total data table of metabolic parameters (end of experiment))?
A: 45.0 ± 5.4 g

Q: And the Food intake ([2]; 30 mg/kg)?
A: 2.2 ± 0.4 g/day

Q: And the weight ([2]; 30 mg/kg daily, D1)?
A: 41.5 ± 3.1 g

Q: What about the weight ([2]; 30 mg/kg daily, D7) of the same molecule?
A: 40.5 ± 3.0 g

Q: What about the weight ([2]; 30 mg/kg daily, D14) of the same molecule?
A: 41.2 ± 4.4 g

Q: And the weight ([2]; 30 mg/kg daily, D21)?
A: 41.3 ± 3.5 g

Q: And the weight ([2]; 30 mg/kg daily, D28)?
A: 42.9 ± 5.6 g

Q: And the weight ([2]; 30 mg/kg, total data table of metabolic parameters (end of experiment))?
A: 42.9 ± 5.6 g

Q: What about the “weight after the drug was administrated for 28 days” value (from here on “weight … for 28 days”) ([2]; 0.3 mg/kg) of the same molecule?
A: 39.9 (2×) and 31.0 and 34.8 and 41.6 and 32.2 and 40.5 and 40.8 and 45.6 and 47.1 and 41.0

Q: And the “weight … for 28 days” value ([2]; 3 mg/kg)?
A: 46.8 (2×) and 42.6 and 54.1 and 48.3 and 34.4 and 42.2 and 43.1 and 46.4 and 39.7 and 50.2

Q: What about the “weight … for 28 days” value ([2]; 30 mg/kg, in g) of the same molecule?
A: 46.6 and 36.5 and 43.6 and 36.8 and 36.7 and 39.3 and 38.7 and 48.2 and 51.8 and 48.6 and 41.0

Q: And the “inhibition effect on the serum DPPIV compared with sitagliptin phosphate” value [3]?
A: obviously higher than that of sitagliptin phosphate

Q: What about the inhibition at 0.3 mg/kg ([3]; mouse, 0.3 mg/kg, vs model control group, read-out: inhibition rate against DPPIV (serum)) of the same molecule?
A: 47.1%

Q: What about the inhibition at 3 mg/kg ([3]; mouse, 3 mg/kg, vs model control group, read-out: inhibition rate against DPPIV (serum)) of the same molecule?
A: 82.7%

Q: What about the inhibition at 30 mg/kg ([3]; mouse, 30 mg/kg, vs model control group, read-out: inhibition rate against DPPIV (serum)) of the same molecule?
A: 95.3%

Source: patent US11046701B2, “Salt of cetagliptin, preparation method thereof, pharmaceutical composition, and use thereof” (CGENETECH (SUZHOU, CHINA) CO., LTD., priority 2018, dated 2021)
